Consider three compounds from ChEMBL document CHEMBL1255171.

For assay [1], the target named is Secretin receptor (Homo sapiens) (UniProt P47872). The experiment in a line: Displacement of [125I]-secretin-27 from secretin receptor expressed in CHO cells at 1 uM by gamma-spectrometer analysis. The format is cell-based.
For assay [2] the target is unchanged. Kind of assay: Agonist activity at secretin receptor expressed in CHO cells assessed as increase of cAMP level at 1 uM. Type of assay: functional, cell-based.

SMILES strings stand for the structures. Calls of active or inactive are those of the source. No cut-off for these calls is given here. Where a SMILES comes first, the peptide text is derived from it. Bridges are numbered along the chain shown (N, C = ends).

Secretin receptor (Homo sapiens), sequence (P47872 whole entry): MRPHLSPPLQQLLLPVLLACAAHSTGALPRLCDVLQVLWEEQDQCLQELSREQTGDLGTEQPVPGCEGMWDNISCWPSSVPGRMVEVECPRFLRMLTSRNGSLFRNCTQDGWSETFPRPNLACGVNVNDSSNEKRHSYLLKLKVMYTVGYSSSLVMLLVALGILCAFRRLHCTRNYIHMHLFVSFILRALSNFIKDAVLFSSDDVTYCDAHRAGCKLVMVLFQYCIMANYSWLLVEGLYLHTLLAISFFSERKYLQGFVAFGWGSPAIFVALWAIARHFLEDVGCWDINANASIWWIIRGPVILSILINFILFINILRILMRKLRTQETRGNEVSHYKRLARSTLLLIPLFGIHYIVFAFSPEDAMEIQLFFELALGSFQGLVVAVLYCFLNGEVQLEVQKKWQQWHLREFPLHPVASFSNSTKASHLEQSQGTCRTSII

As to `CC(C)C[C@H](NC(=O)CNC(=O)[C@H](CCC(N)=O)NC(=O)[C@H](CC(C)C)NC(=O)[C@H](CC(C)C)NC(=O)[C@H](CCCNC(=N)N)NC(=O)[C@H](CCC(N)=O)NC(=O)[C@H](CC(C)C)NC(=O)[C@H](CCCNC(=N)N)NC(=O)[C@H](C)NC(=O)[C@H](CO)NC(=O)[C@H](CC(=O)O)NC(=O)[C@H](CCC(N)=O)NC(=O)[C@H](CC(C)C)NC(=O)[C@H](CCCNC(=N)N)NC(=O)[C@H](CO)NC(=O)[C@H](Cc1ccc(O)cc1)NC(=O)[C@H](CCC(=O)O)NC(=O)[C@H](CO)NC(=O)[C@@H](NC(=O)[C@H](Cc1ccccc1)NC(=O)[C@@H]1CSSC[C@H](NC(=O)[C@H](CO)NC(=O)[C@@H](N)Cc2cnc[nH]2)C(=O)NCC(=O)N1)[C@@H](C)O)C(=O)N[C@H](C(N)=O)C(C)C` (H-HSCGCFTSEYSRLQDSARLQRLLQGLV-NH2; disulfide 3-5), the result in assay [1] and in assay [2] was Active.

In the case of `CC(C)C[C@H](NC(=O)CNC(=O)[C@H](CCC(N)=O)NC(=O)[C@H](CC(C)C)NC(=O)[C@H](CC(C)C)NC(=O)[C@H](CCCNC(=N)N)NC(=O)[C@H](CCC(N)=O)NC(=O)[C@H](CC(C)C)NC(=O)[C@H](CCCNC(=N)N)NC(=O)[C@H](C)NC(=O)[C@H](CO)NC(=O)[C@H](CC(=O)O)NC(=O)[C@H](CCC(N)=O)NC(=O)[C@H](CC(C)C)NC(=O)[C@H](CCCNC(=N)N)NC(=O)[C@H](CO)NC(=O)[C@H](Cc1ccc(O)cc1)NC(=O)[C@H](CCC(=O)O)NC(=O)[C@H](CO)NC(=O)[C@@H]1CSSC[C@H](NC(=O)[C@H](CC(=O)O)NC(=O)[C@H](CO)NC(=O)[C@@H](N)Cc2cnc[nH]2)C(=O)N[C@@H]([C@@H](C)O)C(=O)N[C@@H](Cc2ccccc2)C(=O)N1)C(=O)N[C@H](C(N)=O)C(C)C` (H-HSDCTFCSEYSRLQDSARLQRLLQGLV-NH2; disulfide 4-7), the outcome in assay [1] and in assay [2] was Active. Consider `CC(C)C[C@H](NC(=O)CNC(=O)[C@H](CCC(N)=O)NC(=O)[C@H](CC(C)C)NC(=O)[C@H](CC(C)C)NC(=O)[C@H](CCCNC(=N)N)NC(=O)[C@H](CCC(N)=O)NC(=O)[C@H](CC(C)C)NC(=O)[C@H](CCCNC(=N)N)NC(=O)[C@H](C)NC(=O)[C@H](CO)NC(=O)[C@H](CC(=O)O)NC(=O)[C@H](CCC(N)=O)NC(=O)[C@H](CC(C)C)NC(=O)[C@H](CCCNC(=N)N)NC(=O)[C@H](CO)NC(=O)[C@H](Cc1ccc(O)cc1)NC(=O)[C@@H]1CSSC[C@H](NC(=O)[C@H](Cc2ccccc2)NC(=O)[C@@H](NC(=O)CNC(=O)[C@H](CC(=O)O)NC(=O)[C@H](CO)NC(=O)[C@@H](N)Cc2cnc[nH]2)[C@@H](C)O)C(=O)N[C@@H](CO)C(=O)N1)C(=O)N[C@H](C(N)=O)C(C)C` (H-HSDGTFCSCYSRLQDSARLQRLLQGLV-NH2; disulfide 7-9), for which the result in assay [2] was Active.
